Results as given in patent US20180243298A1, “TRPV3 MODULATORS” (AbbVie Inc., priority 2015, published 2018).

Molecular target: T1, human TRPV3 (Homo sapiens, UniProt Q8NET8)
T1 construct: expressed in transfected cells; host or cells: HEK293
T1 sequence (Q8NET8 1-790): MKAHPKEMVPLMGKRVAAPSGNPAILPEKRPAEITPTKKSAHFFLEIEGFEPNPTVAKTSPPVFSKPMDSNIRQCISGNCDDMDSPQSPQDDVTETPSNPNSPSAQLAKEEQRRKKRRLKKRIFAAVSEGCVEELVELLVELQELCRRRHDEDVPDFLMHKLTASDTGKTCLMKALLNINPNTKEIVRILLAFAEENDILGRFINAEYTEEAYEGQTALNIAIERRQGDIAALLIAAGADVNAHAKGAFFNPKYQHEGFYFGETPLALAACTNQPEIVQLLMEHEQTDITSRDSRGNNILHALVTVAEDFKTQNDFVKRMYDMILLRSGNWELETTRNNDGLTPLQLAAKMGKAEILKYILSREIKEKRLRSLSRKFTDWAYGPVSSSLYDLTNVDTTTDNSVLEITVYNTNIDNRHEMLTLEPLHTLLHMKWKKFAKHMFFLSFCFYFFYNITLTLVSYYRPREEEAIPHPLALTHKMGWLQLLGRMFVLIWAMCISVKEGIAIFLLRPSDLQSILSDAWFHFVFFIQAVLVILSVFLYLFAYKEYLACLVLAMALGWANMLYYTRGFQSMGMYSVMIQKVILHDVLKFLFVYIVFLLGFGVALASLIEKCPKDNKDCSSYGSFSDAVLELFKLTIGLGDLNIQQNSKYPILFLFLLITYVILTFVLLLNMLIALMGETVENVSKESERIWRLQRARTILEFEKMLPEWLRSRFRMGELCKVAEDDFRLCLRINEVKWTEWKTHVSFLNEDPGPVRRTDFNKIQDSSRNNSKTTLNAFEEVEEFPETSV
Assay: Calcium flux assay (FLIPR TETRA), recombinant HEK293 cells expressing TRPV3, 2-APB response
Format: cell-based
Settings: 2-APB at its EC80
Outline: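 Response is the peak fluorescence increase over baseline, as a percentage of the compound-free response to 2-APB at EC80. Calcium flux recorded on FLIPR TETRA in stable human or mouse TRPV3 HEK293 cells after 90–120 min Calcium-4 dye loading.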

Molecule | IC50
COc1ncnc(OC)c1C(=O)Nc1nc(C(F)(F)F)c(-c2ccncc2C#N)s1 [Example 24, N-[5-(3-cyanopyridin-4-yl)-4-(trifluoromethyl)-1,3-thiazol-2-yl]-4,6-dimethoxypyrimidine-5-carboxamide] | 100 to 500 nM
COc1ncnc(OC)c1C(=O)Nc1nc(C(F)(F)F)c([C@@H]2CCCOC2)s1 (single isomer, unassigned) [Example 150] | 100 to 500 nM
COc1ncnc(OC)c1C(=O)Nc1nc(C(F)(F)F)c(-c2cccc(S(=O)(=O)N3CCOCC3)c2)s1 [Example 195, 4,6-dimethoxy-N-{5-[3-(morpholin-4-ylsulfonyl)phenyl]-4-(trifluoromethyl)-1,3-thiazol-2-yl}pyrimidine-5-carboxamide] | 50 to 100 nM
COc1ncnc(SC)c1C(=O)Nc1nc(C(F)(F)F)c(-c2ccccc2C#N)s1 [Example 159, N-[5-(2-cyanophenyl)-4-(trifluoromethyl)-1,3-thiazol-2-yl]-4-methoxy-6-(methylsulfanyl)pyrimidine-5-carboxamide] | < 50 nM
COc1ncnc(OC)c1C(=O)Nc1nc(C(F)(F)F)c(C2CCOCC2)s1 [Example 39, 4,6-dimethoxy-N-[5-(tetrahydro-2H-pyran-4-yl)-4-(trifluoromethyl)-1,3-thiazol-2-yl]pyrimidine-5-carboxamide] | 50 to 100 nM
COc1ncnc(OC)c1C(=O)Nc1nc(C(F)(F)F)c(C(=O)c2ccccc2)s1 [Example 121, N-[5-benzoyl-4-(trifluoromethyl)-1,3-thiazol-2-yl]-4,6-dimethoxypyrimidine-5-carboxamide] | 50 to 100 nM
COc1nc(C#N)nc(C(F)(F)F)c1C(=O)Nc1nc(C(F)(F)F)c(I)s1 [Example 161, 2-cyano-N-[5-iodo-4-(trifluoromethyl)-1,3-thiazol-2-yl]-4-methoxy-6-(trifluoromethyl)pyrimidine-5-carboxamide] | 100 to 500 nM
COc1ncnc(OC)c1C(=O)Nc1nc(-c2ccc(C(F)(F)F)cn2)c(CN2CCCC2)s1 [Example 78, 4,6-dimethoxy-N-{5-(pyrrolidin-1-ylmethyl)-4-[5-(trifluoromethyl)pyridin-2-yl]-1,3-thiazol-2-yl}pyrimidine-5-carboxamide] | 100 to 500 nM
COc1ncnc(OC)c1C(=O)Nc1nc(C(F)(F)F)c(-c2cnc(C#N)c(OCC3COC3)c2)s1 [Example 205, N-(5-(6-cyano-5-(oxetan-3-yl-methoxy)pyridine-3-yl)-4-(trifluoromethyl)thiazol-2-yl)-4,6-dimethoxypyrimidine-5-carboxamide] | 100 to 500 nM
COc1ncnc(OC)c1C(=O)Nc1nc(C(F)(F)F)c(C2=CCCO2)s1 [Example 143, N-[5-(4,5-dihydrofuran-2-yl)-4-(trifluoromethyl)-1,3-thiazol-2-yl]-4,6-dimethoxypyrimidine-5-carboxamide] | < 50 nM
COc1ncnc(OC)c1C(=O)Nc1nc(C2CC2)c(Cc2ccc(F)cc2)s1 [Example 190, N-[4-cyclopropyl-5-(4-fluorobenzyl)-1,3-thiazol-2-yl]-4,6-dimethoxypyrimidine-5-carboxamide] | 50 to 100 nM
CCc1sc(NC(=O)c2c(OC)nc(C)nc2OC)nc1C(F)(F)F [Example 69, N-[5-ethyl-4-(trifluoromethyl)-1,3-thiazol-2-yl]-4,6-dimethoxy-2-methylpyrimidine-5-carboxamide] | 50 to 100 nM
COc1ncnc(OC)c1C(=O)Nc1nc(C(F)(F)F)c(-c2ccnc(N3CCOCC3)c2)s1 [Example 182, 4,6-dimethoxy-N-{5-[2-(morpholin-4-yl)pyridin-4-yl]-4-(trifluoromethyl)-1,3-thiazol-2-yl}pyrimidine-5-carboxamide] | 50 to 100 nM
4,6-dimethoxy-N-[5-(2-methoxypyrimidin-5-yl)-4-(trifluoromethyl)-1,3-thiazol-2-yl]pyrimidine-5-carboxamide [Example 183] | 100 to 500 nM
COc1ncnc(OC)c1C(=O)Nc1nc(C(F)(F)F)c(-c2c[nH]c3cc(C#N)ccc23)s1 [Example 44, N-[5-(6-cyano-1H-indol-3-yl)-4-(trifluoromethyl)-1,3-thiazol-2-yl]-4,6-dimethoxypyrimidine-5-carboxamide] | 100 to 500 nM
COc1ncnc(OC)c1C(=O)Nc1nc(C(F)(F)F)c(-c2cncc(OC(C)C)c2)s1 [Example 156, 4,6-dimethoxy-N-{5-[5-(propan-2-yloxy)pyridin-3-yl]-4-(trifluoromethyl)-1,3-thiazol-2-yl}pyrimidine-5-carboxamide] | < 50 nM
COc1ncnc(OC)c1C(=O)Nc1nc(C(F)(F)F)c(C2(F)CCOCC2)s1 [Example 118, N-[5-(4-fluorotetrahydro-2H-pyran-4-yl)-4-(trifluoromethyl)-1,3-thiazol-2-yl]-4,6-dimethoxypyrimidine-5-carboxamide] | 500 to 1000 nM
CO/N=C(/C)c1sc(NC(=O)c2c(OC)ncnc2OC)nc1C(F)(F)F [Example 136, 4,6-dimethoxy-N-{5-[(1Z)—N-methoxyethanimidoyl]-4-(trifluoromethyl)-1,3-thiazol-2-yl}pyrimidine-5-carboxamide] | < 50 nM
COc1ncnc(OC)c1C(=O)Nc1nc(C(F)(F)F)c(C(O)C(C)(C)C)s1 (centres unmarked) [Example 123, N-[5-(1-hydroxy-2,2-dimethylpropyl)-4-(trifluoromethyl)-1,3-thiazol-2-yl]-4,6-dimethoxypyrimidine-5-carboxamide] | 100 to 500 nM
CO/N=C(\c1ccccc1)c1sc(NC(=O)c2c(OC)ncnc2OC)nc1C(F)(F)F [Example 125, 4,6-dimethoxy-N-{5-[(E)-(methoxyimino)(phenyl)methyl]-4-(trifluoromethyl)-1,3-thiazol-2-yl}pyrimidine-5-carboxamide] | < 50 nM
COc1ncnc(OC)c1C(=O)Nc1nc(C(F)(F)F)c(C2CC(C(C)C)=NO2)s1 (centres unmarked) [Example 170, 4,6-dimethoxy-N-{5-[3-(propan-2-yl)-4,5-dihydro-1,2-oxazol-5-yl]-4-(trifluoromethyl)-1,3-thiazol-2-yl}pyrimidine-5-carboxamide] | 100 to 500 nM
COc1ncnc(OC)c1C(=O)Nc1nc(C(F)(F)F)c(-c2cc(C(C)C)no2)s1 [Example 171, 4,6-dimethoxy-N-{5-[3-(propan-2-yl)-1,2-oxazol-5-yl]-4-(trifluoromethyl)-1,3-thiazol-2-yl}pyrimidine-5-carboxamide] | 50 to 100 nM
COc1ncnc(OC)c1C(=O)Nc1nc(C(F)(F)F)c(-c2cn(C)nc2C(C)C)s1 [Example 181, 4,6-dimethoxy-N-{5-[1-methyl-3-(propan-2-yl)-1H-pyrazol-4-yl]-4-(trifluoromethyl)-1,3-thiazol-2-yl}pyrimidine-5-carboxamide] | 50 to 100 nM
COc1ncnc(OC)c1C(=O)Nc1nc(C(F)(F)F)c(C#C[Si](C)(C)C)s1 [Example 10, 4,6-dimethoxy-N-{4-(trifluoromethyl)-5-[(trimethylsilyl)ethynyl]-1,3-thiazol-2-yl}pyrimidine-5-carboxamide] | < 50 nM
COc1ncnc(OC)c1C(=O)Nc1nc(CCC2CC2)cs1 [Example 105, N-[4-(2-cyclopropylethyl)-1,3-thiazol-2-yl]-4,6-dimethoxypyrimidine-5-carboxamide] | 50 to 100 nM
CCn1cc(-c2sc(NC(=O)c3c(OC)ncnc3OC)nc2C(F)(F)F)c(C)n1 [Example 200, N-[5-(1-ethyl-3-methyl-1H-pyrazol-4-yl)-4-(trifluoromethyl)-1,3-thiazol-2-yl]-4,6-dimethoxypyrimidine-5-carboxamide] | < 50 nM
